Drawing on patent US11180474B2 (BRISTOL-MYERS SQUIBB COMPANY, priority 2016, dated 2021), this text covers IC50 for 26 compounds.

Counter-ions that a name gives are not always drawn.

For orientation: IC50 means the concentration needed to halve the response being measured.

In the test the target is T1, human TLR9 (Homo sapiens, UniProt Q9NR96).
T1 construct: host or cells: HEK-Blue cells
T1 sequence (Q9NR96 26-1032): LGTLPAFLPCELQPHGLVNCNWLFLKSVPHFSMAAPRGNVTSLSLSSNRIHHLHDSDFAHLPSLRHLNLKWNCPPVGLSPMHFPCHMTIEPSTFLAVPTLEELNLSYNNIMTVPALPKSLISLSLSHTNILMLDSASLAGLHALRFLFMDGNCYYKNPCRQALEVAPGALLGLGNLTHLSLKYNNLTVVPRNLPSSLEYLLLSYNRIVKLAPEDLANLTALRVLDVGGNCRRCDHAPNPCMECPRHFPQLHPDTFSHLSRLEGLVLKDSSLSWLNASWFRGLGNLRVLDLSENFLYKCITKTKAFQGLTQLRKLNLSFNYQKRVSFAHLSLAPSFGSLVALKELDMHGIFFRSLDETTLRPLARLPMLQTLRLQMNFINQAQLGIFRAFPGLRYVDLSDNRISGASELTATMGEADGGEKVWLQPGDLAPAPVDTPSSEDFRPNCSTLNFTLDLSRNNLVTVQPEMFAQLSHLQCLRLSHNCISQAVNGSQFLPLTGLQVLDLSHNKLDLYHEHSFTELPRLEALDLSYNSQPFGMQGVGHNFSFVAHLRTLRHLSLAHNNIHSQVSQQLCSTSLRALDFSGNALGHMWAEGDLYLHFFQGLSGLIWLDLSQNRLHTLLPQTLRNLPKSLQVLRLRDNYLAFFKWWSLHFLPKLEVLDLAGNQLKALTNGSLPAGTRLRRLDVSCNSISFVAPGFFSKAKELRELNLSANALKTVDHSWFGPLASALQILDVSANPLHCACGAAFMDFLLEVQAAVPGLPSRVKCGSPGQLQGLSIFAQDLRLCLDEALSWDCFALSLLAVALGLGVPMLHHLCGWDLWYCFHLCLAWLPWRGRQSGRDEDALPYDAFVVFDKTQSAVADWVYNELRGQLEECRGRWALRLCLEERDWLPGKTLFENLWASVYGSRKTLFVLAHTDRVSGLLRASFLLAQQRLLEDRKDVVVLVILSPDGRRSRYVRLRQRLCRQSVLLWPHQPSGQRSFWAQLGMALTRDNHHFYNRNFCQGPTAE
Description: TLR9 inhibition reporter assay (HEK-Blue cells, SEAP reporter, ODN2006 stimulation). The conditions noted are these: HEK-Blue cells overexpressing human TLR9, ODN2006 5 nM. Format: cell-based. Put shortly: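 Compound treatment: 30 min, RT, 0.05 nM–50 μM final. Agonist: TLR7 gardiquimod 7.5 μM; TLR8 R848 15.9 μM; TLR9 ODN2006 5 nM. Incubation 22 h, 37 °C, 5% CO2. Readout SEAP, HEK-Blue Detection.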
On the technique in general: A reporter such as luciferase makes a cellular process visible.
The compound `CCc1c(-c2ccc(OC)c(OC)c2)[nH]c2c(F)cc(C3CCNCC3)cc12` [Example 189, 2-(3,4-dimethoxyphenyl)-3-ethyl-7-fluoro-5-(piperidin-4-yl)-1H-indole] yielded an IC50 of 1.15 µM. That is a single-digit micromolar value.
To `COc1ccc(-c2[nH]c3ccc(C4CCN(C(=O)CNC56CC7CC(CC(O)(C7)C5)C6)CC4)cc3c2C(C)C)cc1OC` [Example 218, 1-(4-(2-(3,4-dimethoxyphenyl)-3-isopropyl-1H-indol-5-yl)piperidin-1-yl)-2-(((1r,3s,5R,7S)-3-hydroxyadamantan-1-yl)amino)ethan-1-one] belongs 1.28 µM; to `CCc1c(-c2ccc(OC)c(OC)c2)[nH]c2cc(C)c(C3CCN(CCNC)CC3)cc12` [Example 188, 2-(4-(2-(3,4-dimethoxyphenyl)-3-ethyl-6-methyl-1H-indol-5-yl)piperidin-1-yl)-N-methylethanamine-di-trifluoroacetic acid], 0.613 µM.
To `COc1ccc(-c2[nH]c3ccc(C4CCN(C(=O)CNCC(C)O)CC4)cc3c2C(C)C)cc1OC` (centres unmarked) [Example 210, 1-(4-(2-(3,4-dimethoxyphenyl)-3-isopropyl-1H-indol-5-yl)piperidin-1-yl)-2-((2-hydroxypropyl)amino)ethan-1-one] belongs 1.93 µM; to `CCc1c(-c2ccc(OC)c(OC)c2)[nH]c2ccc(C3CCN(C(=O)CNC4CCC(N(C)C)CC4)CC3)cc12` (centres unmarked) [Example 162, 1-(4-(2-(3,4-dimethoxyphenyl)-3-ethyl-1H-indol-5-yl)piperidin-1-yl)-2-((4-(dimethylamino)cyclohexyl)amino)ethan-1-one], 0.402 µM.
The compound `CCc1c(-c2ccc(OC)c(OC)c2)[nH]c2ccc(C3CCN(C4CCN(Cc5cnc(C)o5)CC4)CC3)cc12` [Example 124, 5-((4-(2-(3,4-dimethoxyphenyl)-3-ethyl-1H-indol-5-yl)-[1,4′-bipiperidin]-1′-yl)methyl)-2-methyloxazole] had an IC50 of 1.28 µM.
To `CCc1c(-c2ccc(OC)c(OC)c2)[nH]c2ccc(C3CCN(C4CCN(C5CCCC5)CC4)CC3)cc12` [Example 152, 5-(1′-cyclopentyl-[1,4′-bipiperidin]-4-yl)-2-(3,4-dimethoxyphenyl)-3-ethyl-1H-indole] belongs 0.233 µM; to `CCc1c(-c2ccc(OC)c(OC)c2)[nH]c2ccc(C3CCN(C(=O)CN(C)C)CC3)cc12` [Example 181, 1-(4-(2-(3,4-dimethoxyphenyl)-3-ethyl-1H-indol-5-yl)piperidin-1-yl)-2-(dimethylamino) ethanone], 2.27 µM.
In the case of `CCc1c(-c2ccc(OC)c(OC)c2)[nH]c2ccc(C3CCN(C4CCN(Cc5ccc(-c6ccccc6)s5)CC4)CC3)cc12` [Example 141, 2-(3,4-dimethoxyphenyl)-3-ethyl-5-(1′-((5-phenylthiophen-2-yl)methyl)-[1,4′-bipiperidin]-4-yl)-1H-indole] it was no less than 50 µM; in that of `COc1ccc(-c2[nH]c3ccc(C4CCN(C5CCN(CC6CC6)CC5)CC4)cc3c2C(C)C)cc1OC` [Example 198, 5-(1′-(cyclopropylmethyl)-[1,4′-bipiperidin]-4-yl)-2-(3,4-dimethoxyphenyl)-3-isopropyl-1H-indole di trifluoroacetic acid], 0.49 µM; in that of `CCc1c(-c2ccc(OC)c(OC)c2)[nH]c2ccc(C3CCN(C4CCN(C(C)C)CC4)CC3)cc12` [Example 151, 2-(3,4-dimethoxyphenyl)-3-ethyl-5-(1′-isopropyl-[1,4′-bipiperidin]-4-yl)-1H-indole], 0.556 µM.
To `COc1ccc(-c2[nH]c3ccc(C4CCN(C(=O)CNCC#N)CC4)cc3c2C(C)C)cc1OC` [Example 214, 2-((2-(4-(2-(3,4-dimethoxyphenyl)-3-isopropyl-1H-indol-5-yl)piperidin-1-yl)-2-oxoethyl)amino) acetonitrile] belongs no less than 50 µM.
`CCc1c(-c2ccc(OC)c(OC)c2)[nH]c2ccc(C3CCN(C(=O)CNCC#N)CC3)cc12` [Example 161, 2-((2-(4-(2-(3,4-dimethoxyphenyl)-3-ethyl-1H-indol-5-yl)piperidin-1-yl)-2-oxoethyl)amino)acetonitrile] yielded an IC50 of no less than 50 µM.
In turn, `CCc1c(-c2ccc(OC)c(OC)c2)[nH]c2ccc(C3CCN(C(=O)CN4CCCC(C(=O)O)C4)CC3)cc12` (racemic) [Example 176, 1-(2-(4-(2-(3,4-dimethoxyphenyl)-3-ethyl-1H-indol-5-yl)piperidin-1-yl)-2-oxoethyl)piperidine-3-carboxylic acid] came in with an IC50 of no less than 50 µM.
In the case of `CCc1c(-c2ccc(OC)c(OC)c2)[nH]c2ccc(C3CCN(C(=O)CN4CCCC(C(=O)N(CC)CC)C4)CC3)cc12` (single isomer, unassigned) [Example 179, 1-(2-(4-(2-(3,4-dimethoxyphenyl)-3-ethyl-1H-indol-5-yl)piperidin-1-yl)-2-oxoethyl)-N,N-diethylpiperidine-3-carboxamide] it was 0.747 µM; in that of `COc1ccc(-c2[nH]c3ccc(C4CCN(C5CCN(Cc6ccccc6)CC5)CC4)cc3c2C)cc1OC` [Example 9, 5-(1′-benzyl-[1,4′-bipiperidin]-4-yl)-2-(3,4-dimethoxyphenyl)-3-methyl-1H-indole], 0.36 µM.
In the case of `COc1ccc(-c2[nH]c3ccc(C4CCN(C(=O)CNCC(C)(C)CO)CC4)cc3c2C(C)C)cc1OC` [Example 219, 1-(4-(2-(3,4-dimethoxyphenyl)-3-isopropyl-1H-indol-5-yl)piperidin-1-yl)-2-((3-hydroxy-2,2-dimethylpropyl)amino)ethan-1-one] it was 2.1 µM; in that of `CCc1c(-c2ccc(OC)c(OC)c2)[nH]c2ccc(C3CCN(C(=O)C4CCNCC4)CC3)cc12` [Example 186, (4-(2-(3,4-dimethoxyphenyl)-3-ethyl-1H-indol-5-yl)piperidin-1-yl)(piperidin-4-yl) methanone], 0.991 µM.
`CCc1c(-c2ccc(OC)c(OC)c2)[nH]c2c(F)cc(C3CCN(CCNC)CC3)cc12` [Example 191, 2-(4-(2-(3,4-dimethoxyphenyl)-3-ethyl-7-fluoro-1H-indol-5-yl)piperidin-1-yl)-N-methylethan-1-amine]: the IC50 turned out to be 1.22 µM.
To `CCc1c(-c2ccc(OC)c(OC)c2)[nH]c2ccc(C3CCN(C(=O)C4CCCNC4)CC3)cc12` (centres unmarked) [Example 184, (4-(2-(3,4-dimethoxyphenyl)-3-ethyl-1H-indol-5-yl)piperidin-1-yl)(piperidin-3-yl)methanone] belongs 2.07 µM; to `COc1ccc(-c2[nH]c3ccc(C4CCN(C(=O)CN5CCC(N6CCCCC6)CC5)CC4)cc3c2C(C)C)cc1OC` [Example 211, 2-([1,4′-bipiperidin]-1′-yl)-1-(4-(2-(3,4-dimethoxyphenyl)-3-isopropyl-1H-indol-5-yl)piperidin-1-yl)ethan-1-one], 0.99 µM.
In the case of `CNCCN1CCC(c2cc3c(C(C)C)c(-c4ccc(OC)c(OC)c4)[nH]c3cc2F)CC1` [Example 208, 2-(4-(2-(3,4-dimethoxyphenyl)-6-fluoro-3-isopropyl-1H-indol-5-yl)piperidin-1-yl)-N-methylethan-1-amine] it was 0.374 µM.
To `COc1ccc(-c2[nH]c3ccc(C4CCNCC4)cc3c2C(C)C)cc1OC` [Example 194, 2-(3,4-dimethoxyphenyl)-3-isopropyl-5-(piperidin-4-yl)-1H-indole hydrochloride] belongs 5.01 µM; to `CCN(CC)C(=O)CN(C)CC(=O)N1CCC(c2ccc3[nH]c(-c4ccc(OC)c(OC)c4)c(C(C)C)c3c2)CC1` [Example 203, 2-((2-(4-(2-(3,4-dimethoxyphenyl)-3-isopropyl-1H-indol-5-yl)piperidin-1-yl)-2-oxoethyl)(methyl)amino)-N,N-diethylacetamide, TFA], 6.66 µM.
Compound `CCc1c(-c2ccc(OC)c(OC)c2)[nH]c2ccc(C3CCN(C(=O)CN4CCCC(C(=O)N(CC)CC)C4)CC3)cc12` (centres unmarked) [Example 168, 1-(2-(4-(2-(3,4-dimethoxyphenyl)-3-ethyl-1H-indol-5-yl)piperidin-1-yl)-2-oxoethyl)-N,N-diethylpiperidine-3-carboxamide] displayed an IC50 of 0.87 µM.
The compound `COc1ccc(-c2[nH]c3ccc(C4CCN(C(=O)CNC56CC7CC(CC(C7)C5)C6)CC4)cc3c2C(C)C)cc1OC` [Example 217, 2-(((3s,5s,7s)-adamantan-1-yl)amino)-1-(4-(2-(3,4-dimethoxyphenyl)-3-isopropyl-1H-indol-5-yl)piperidin-1-yl)ethan-1-one] gave an IC50 of 2.13 µM.
